Test results: US8338410B2, “Neuroprotective compounds and pharmaceutical compositions comprising them” (Biocodex, priority 2005, dated 2012)

What was measured:
[1] = test system: mixed cultures of rat cortical neurones and astrocytes; test: Density of neuritic extensions marked by anti-neurofilament antibody, with or without excess glutamate; format: cell-based; conditions: for density of neurofilaments: control culture medium
Description: The principle of the investigation consisted of evaluating the survival of cortical neurones in co-culture with astrocytes after the application of a neurotoxic agent, excess glutamate.
Neurone survival is quantified by the density of the system of neuritic extensions marked by an anti-neurofilament antibody in the absence or presence of glutamate.
(§1) • Cell type: Initial culture of cortical neurones from 14 day rat embryos and initial culture of cortical astrocytes from newborn rats. • Culture medium: DMEM-Ham F12 (Invitrogen 21331020) • B27 2% (invitrogen 17504044) • L-glutamine 2 mM (Invitrogen 25030024) • Penicillin 50 UI/ml—Streptomycin 50 μg/ml (Invitrogen 15070063) • Nerve Growth Factor 10 ng/ml (NGF, Invitrogen 13290.010) • Survival medium: MEM (Invitrogen 21090022) • L-glutamine 2 mM (Invitrogen 25030024) • Penicillin 50 UI/ml—Streptomycin 50 μg/ml (Invitrogen 15070063) • Supplement N2 (Invitrogen 17502-048) 1.2 Prior Cytotoxicity • Platelets: 96 wells • Culture time: 8 days • Cells/well: cortical neurones+astrocytes • Product range: from 100 μM then ratio 3 • Replicates: 3 • Cell/product contact: 48 hours • Evaluation parameters: microscopic observation and MTT hydrolysis. • MTT: 3-(4,5-dimethylthiozol-2-yl)-2,5-diphenyltetrazolium bromide 1.3 Treatment and Analysis of the Network of Extensions Marked with Antineurofilament Antibody
The cortical neurones were obtained from the cortex of 14 day rat embryos cultured in platelet culture medium 96 and then in a stove at 37° C. and 5% CO2 with saturated humidity. After 2 days culture astrocytes obtained from newborn rat cortex were seeded in the wells (in a ratio of 1 astrocyte to 4 neurones). After 10 days culture the mature neurones synthesised neurofilaments (structural protein specific to mature neurones); in addition to this these neurones expressed functional receptors to glutamate on their surfaces and could therefore be intoxicated.
On the 12th day of culture the medium was replaced by survival medium with or without etifoxine in 3 concentrations and the neurones were or were not intoxicated with glutamate (Sigma G1501) at a strength of 2 mM and 10 mM. Each culture condition was applied to 4 wells. The cultures were incubated for 2 periods (6 and 24 hours).
A positive control was carried out in the survival culture medium containing Nerve Growth Factor (NGF; 10 ng/ml) and basic Fibroblast Growth Factor (FGFb; 5 ng/ml) and the cells were intoxicated under the same conditions.
At the end of the two incubation periods (6 and 24 hours) the cell layers were fixed and marked with a anti-68- and 200 kD neurofilament monoclonal antibody (DAKO M0762) and then developed using a mouse anti-immunoglobulin goat antibody conjugate Alexia fluor 488 (Interchim A-11029). Controls without primary antibody were performed. All the controls were negative (no non-specific labelling). After extensive washing with PBS the preparations were observed under epi-fluorescence (Nikon Diaphot 300 microscope).
2 images were obtained for each culture well (4 wells per experimental condition) using a Nikon DXM1200F camera controlled by LUCIA 6.0 software.
All the images were obtained under the same conditions and with identical camera settings.
The densities of the networks of extensions marked with anti-neurofilament antibody were examined using LUCIA 6.0 software. Initial image processing made it possible to increase the intensity of the specific marking on the extensions. Areas in which marking was positive were binarised and the percentage marking per image was determined (marked surface area/total surface area examined).
The results (mean values±standard error with respect to the mean (SEM) were expressed as percentage marking per microscope field (n=8 measurements/culture conditions). 2-factor analysis of variance (Etifoxine and glutamate), followed by the Student Newman-Keuls multiple comparisons test was used for statistical comparison of the results. […]

[2] = test system: cortical neurones in the presence of astrocytes in culture; test: Prior cytotoxicity, microscopic observation after 48 hours; format: cell-based; conditions: 100 μM, 48 hours incubation
Method: as §1
A first experiment was carried out (conventional test used to measure the level of cell survival) in order to investigate the cytotoxicity of etifoxine in relation to cortical neurones in the presence of astrocytes in culture and thus to determine the maximum non-toxic concentration of etifoxine.

[3] = test system: mice subjected to histotoxic hypoxia induced by potassium cyanide; test: KCN hypoxia (i.p.) in mice (survival time); format: in vivo, CD1 male mice; conditions: KCN 15 mg/kg i.p.
[4] = test system: rats subjected to histotoxic hypoxia induced by potassium cyanide; test: KCN (i.v.) hypoxia in rats (survival time); format: in vivo, Wistar male rats; conditions: rats, KCN 4 mg/kg i.v.
[5] = compound i.p. dose 3, first i.p. series
[6] = compound i.p. dose 10, first i.p. series
[7] = compound i.p. dose 30, first i.p. series (control 106 ± 9)
[8] = compound i.p. dose 30, second i.p. series (control 91 ± 4)
[9] = compound i.p. dose 50, second i.p. series
[10] = compound i.p. dose 75, second i.p. series

SMILES: CCNC1=Nc2ccc(Cl)cc2C(C)(c2ccccc2)O1.Cl (stereo not drawn) [etifoxine, 6-chloro-2-ethylamino-4-methyl-4-phenyl-4H-[3,1]benzoxazine hydrochloride]
- density of marked neurofilaments ([1]; control culture medium (without glutamate), 6 hours, significant at 10 μM): increased the density of marked neurofilaments in a dose-dependent way
- density of neurofilaments ([1]; 24 hours, 10 μM): increased the density of neurofilaments
- density of neurofilaments ([1]; 24 hours, 1 and 3 μM): without effect
- density of neurofilaments in the presence of glutamate ([1]; glutamate 2 mM, 24 hours, compound 10 μM): opposed the effects of 2 mM of glutamate
- density of neurofilaments in the presence of glutamate ([1]; glutamate 2 and 10 mM, 6 hours, compound 3 and 10 μM): opposed the decrease in density of neurofilaments induced by glutamate
- astrocyte mortality, visual examination with a microscope [2]: astrocyte mortality was observed
- Percentage variation [3, 5]: +15%
- Survival time in seconds (m ± sem) [3, 5]: 122 ± 7 s
- Percentage variation [3, 6]: +7%
- Survival time in seconds (m ± sem) [3, 6]: 113 ± 5 s
- Percentage variation [3, 7]: +22%
- Survival time in seconds (m ± sem) [3, 7]: 129 ± 11 s
- Percentage variation [3, 8]: +19%
- Survival time in seconds (m ± sem) [3, 8]: 108 ± 4 s
- Percentage variation [3, 9]: +36%
- Survival time in seconds (m ± sem) [3, 9]: 124 ± 8 s
- Percentage variation [3, 10]: +46%
- Survival time in seconds (m ± sem) [3, 10]: 133 ± 6 s
- Percentage variation ([3]; compound p.o. dose 100): −13%
- Survival time in seconds (m ± sem) ([3]; compound p.o. dose 100): 94 ± 6 s
- Percentage variation ([3]; compound p.o. dose 200): +14%
- Survival time in seconds (m ± sem) ([3]; compound p.o. dose 200): 123 ± 12 s
- Percentage variation ([3]; compound p.o. dose 300): −6%
- Survival time in seconds (m ± sem) ([3]; compound p.o. dose 300): 102 ± 7 s
- survival time ([3]; oral administration): did not significantly affect survival time
- time to death ([3]; over 50 mg/kg i.p.): significantly increased the time to death
- Percentage variation ([4]; compound i.p. dose 30): +7%
- Survival time in seconds (m ± sem) ([4]; compound i.p. dose 30): 60.3 ± 2.0 s
- Percentage variation ([4]; compound i.p. dose 50): +90%
- Survival time in seconds (m ± sem) ([4]; compound i.p. dose 50): 107.3 ± 6.1 s
- Percentage variation ([4]; compound i.p. dose 75): +155%
- Survival time in seconds (m ± sem) ([4]; compound i.p. dose 75): 144.3 ± 11.5 s
- Percentage variation ([4]; compound p.o. dose 50): +7%
- Survival time in seconds (m ± sem) ([4]; compound p.o. dose 50): 59.5 ± 2.1 s
- Percentage variation ([4]; compound p.o. dose 100): +8%
- Survival time in seconds (m ± sem) ([4]; compound p.o. dose 100): 60.1 ± 1.2 s
- Percentage variation ([4]; compound p.o. dose 200): +15%
- Survival time in seconds (m ± sem) ([4]; compound p.o. dose 200): 63.9 ± 2.0 s
- time to death ([4]; from 50 mg/kg i.p. and 200 mg/kg p.o.): significantly increased the time to death
